Values quoted from earlier work in article PMC11477967, “Review of the Structural Characteristics and Biological Activities of Tricholoma Secondary Metabolites (2018–2023)” (Molecules, 2024).
Converted amounts (≈) assume the structure as drawn. Where two headings read alike, the source gives them in different places.

Experiments:
[1] = test system: Pseudomonas aeruginosa; parameters: method as in PMID 26186257
[2] = test system: B. subtilis; parameters: method as in PMID 26186257
[3] = test system: S. aureus; parameters: method as in PMID 26186257
[4] = test system: A-549
[5] = test system: bacteria; parameters: method as in PMID 32534274, PMID 26186257, PMID 34604687, PMID 28794307; conditions: Table 1 summary
[6] = test system: S. epidermidis; parameters: method as in PMID 26186257
[7] = test system: human tumor cell lines; parameters: method as in PMID 29758519, PMID 32534274, PMID 26186257; conditions: Table 1 summary
[8] = test system: E. coli; parameters: method as in PMID 26186257
[9] = test system: MCF-7
[10] = parameters: method as in PMID 36480815; conditions: Table 1 summary
[11] = test system: HeLa; parameters: method as in PMID 36480815; conditions: HeLa cell line
[12] = test system: H1299
[13] = test system: MCF7
[14] = test system: HT29
[15] = test system: L929
[16] = parameters: method as in PMID 36480815; conditions: among 50-54
[17] = test system: PDF; parameters: method as in PMID 36480815; conditions: PDF cells
[18] = test system: human cancer cell lines; conditions: Table 1 summary
[19] = test system: MCF-7; parameters: method as in PMID 33449279; conditions: MCF-7 cells
[20] = test system: caspase-3; parameters: method as in PMID 33449279; conditions: compared to the control group
[21] = test system: caspase-9; parameters: method as in PMID 33449279; conditions: compared to the control group
[22] = test system: HeLa; parameters: method as in PMID 33449279

For `CC(C)C(C)C=CC(C)C1CCC2C(=CC(=O)OC3(C)CCC=CC3=O)C(=O)CCC21C` (stereo not shown) [Compound 40, chaxine C], the “antibacterial activity” value [1] is given as “antibacterial activity”, the “antibacterial activity” value [2] is given as “more significant inhibitory effect” and the “antibacterial activity” value [3] is given as “more significant inhibitory effect”. The IC50 [4] was under 10 µM, the “selective cytotoxicity” value [4] was “selective toxicity” and the “Bioactivities: Antibacterial activity” value [5] was “Antibacterial activity”. For the same compound, the “antibacterial activity” value [6] was “antibacterial activity”, the “Bioactivities: Anti-cancer activity” value [7] was “Anti-cancer activity” and the “antibacterial activity” value [8] was “antibacterial activity”. The “selective cytotoxicity” value [9] was “selective toxicity”.
For `CC(C)C(C)/C=C/[C@@H](C)C1CCC2C3=C[C@H](O)[C@@]45C[C@@H](O)CC[C@]4(C)[C@]3(CC[C@@]21C)O5` (stereo partly shown) [Compound 50, anatoluin A], the “Bioactivities: Antioxidant activity” value [10] is given as “Antioxidant activity”, the IC50 [11] is given as 14.3 ± 1.7 mg/L (≈ 33.4 µM) and the “cytotoxic activity” value [12] is given as “selectively inhibited”. For the same compound, the IC50 ([12]; H1299 cell line) was 34.3 ± 1.1 mg/L (≈ 80 µM), the “cytotoxic activity” value [13] was “selectively inhibited” and the “cytotoxic activity” value [14] was “selectively inhibited”. The “toxicity to normal or healthy cell lines” value [15] was “almost no toxicity” and the “lipid peroxidation inhibitory activity (rank, words)” value [16] was “most active”.
In the case of `CC(C)C(C)C=CC(C)C1CCC2C1(C)CCC1C23C=CC2(CC(O)CCC12C)OO3` (stereo not shown) [Compound 53, ergosterol-endoperoxide], the “Bioactivities: Antioxidant activity” value [10] is listed as “Antioxidant activity”, the IC50 [17] is listed as 52.8 ± 0.5 mg/L (≈ 123 µM) and the “cytotoxic activity” value ([14]; HT29) is listed as “selectively inhibited”. The IC50 ([15]; L929 cells) was 65.6 ± 2.2 mg/L (≈ 153 µM) and the “Bioactivities: Cytotoxic against human cancer cell lines” value [18] was “Cytotoxic against human cancer cell lines”.
For `C=C1CCC(CCC2CC=C(C3(C)CCC(=O)C(C)(C)O3)OC2)C(C)(C)C1CC=C1C(=O)OCC1O` (stereo not shown) [Compound 63, tricholopardin C], the IC50 [19] is listed as 4.7 µM, the “activation of caspase-3” value [20] is listed as “activation” and the “activation of caspase-9” value [21] is listed as “activation”. The “cytotoxicity” value [22] was “cytotoxicity” and the “Bioactivities: Cytotoxic against human cancer cell lines” value [18] was “Cytotoxic against human cancer cell lines”.
